# Where two headings read alike, the source gives them in different places. Marks after values point to notes of the source that are not given here. No end group written: not given here.
# How the values were obtained:
# E. coli BL21 AI = details: indicator strain E. coli BL21 AI, cited from earlier work
# From the text: To increase the activity of nisin against Gram-negative bacteria, both the inhibition activity and trans-outer membrane activity are important. When the first three rings of nisin are intact, the lipid II binding activity is stable. Retaining the pore formation activity is crucial. By further variation of the linker between the nisin part and the tail or searching for more effic ...
# E. coli ATCC 25922 = details: indicator strain E. coli ATCC 25922, [2013], cited from earlier work
# From the text: Table 1 List of selected peptides with anti-Gram-negative bacteria activity. | column: MIC(μM)
# [1] = supernatant of L. lactis NZ9000 expression culture in MEM medium; details: Lactococcus lactis, 30°C, up to 3 h induction
# [2] = supernatant of L. lactis NZ9000 expression culture in MEM medium, mixed with supernatant containing NisP; details: Lactococcus lactis, 30°C, up to 3 h induction; 1 h with NisP
# E. coli CECT101 = format: cell-based, Escherichia coli; details: for Activity against E. coli CECT101 relative to nisin: comparison of MIC values / growth curves (Table 6, Figure 3)
# Protocol: (§1) L. lactis strains were cultured in M17 broth supplemented with 0.5% (w/v) glucose (GM17) for genetic manipulation or in minimal expression medium (MEM) for protein expression at 30°C (Rink et al., [2005]). E. coli CECT101 was grown in Luria-Bertani broth aerated by shaking (200 rpm) at 37°C.
# (§2) The indicator strains were first cultured until OD (600 nm) reached 0.5. When testing the MIC value, the culture was diluted 1000 times with the appropriate medium. All the tests were performed with a temperature controlled plate reader (Tecan infinite F200, Tecan Group AG) in a 96-well plate (Greiner Bio-one). The peptides were first diluted in gradient with medium and then mixed with diluted indicator strains. The final concentration of the peptides ranged from 0.00625 to 0.8 μM against L. lactis MG1363 and from 0.25 to 32 μM against E. coli CECT101 in 100 μl volume. The plate was incubated at 30°C or 37°C for 18 h depending on the indicator strain being L. lactis or E. coli, respectively. OD (600 nm) was checked every 30 min. For E. coli, 2 min of shaking was performed before every check. When testing the activity of nisin against E. coli in the presence of EDTA, an EDTA solution was prepared and added to a final concentration of 50, 110, or 250 μM. The minimal concentration of peptide causing no observed growth of indicator strains was considered as the MIC value.
# L. lactis MG1363 = format: cell-based, Lactococcus lactis; details: for MIC value, L. lactis MG1363: MG1363, 18 h
# Protocol: as §1, §2
compound,measurement,setting,value
VDKPPYLPRPRPPRRIYNR-NH2 [Oncocin],MIC,"E. coli BL21 AI; ref Knappe et al., [2010]",1.7^b μM
GNNRPVYIPQPRPPHPRL [Apidaecin 1b],MIC,"E. coli BL21 AI; ref Berthold et al., [2013]",0.5^b μM
same,MIC,"E. coli BL21 AI; ref Berthold et al., [2013], listed as apidaecin 1b",0.5 µM
GIGKHVGKALKGLKGLLKGLGEC-NH2 [ADP2],MIC,E. coli ATCC 25922; ref Iliæ et al.,1^f μM
Nisin + GKHVGKALKGLKGLLK,cleaved bond,[1],Val32-Dha33
"Gu-ONNRPVYIPRPRPPHPRL-NH2 [Api 88, derivative of apidaecin 1b with increased positive charges and an amidated C-terminus]",MIC,"E. coli BL21 AI; ref Czihal et al., [2012]",0.2^b μM
KKLFKKILKYL-NH2 [R-BP100],MIC,E. coli ATCC 25922; ref Torcato et al.,0.9 ± 0.4^f μM
Ring ABC + NMKPPYLPRPRPPRRIYNR,cleaved bond,[2],Y-N and I-Y
C=C1NC(=O)[C@H]([C@@H](C)CC)NC(=O)[C@H](NC(=O)/C(=C/C)NC(=O)[C@@H](N)[C@@H](C)CC)CSC[C@@H](C(=O)N[C@H]2C(=O)N3CCC[C@H]3C(=O)NCC(=O)N[C@H](C(=O)N[C@@H](CCCCN)C(=O)N[C@H]3C(=O)NCC(=O)N[C@@H](C)C(=O)N[C@@H](CC(C)C)C(=O)N[C@@H](CCSC)C(=O)NCC(=O)N[C@H](C(=O)N[C@@H](CC(N)=O)C(=O)N[C@@H](CCSC)C(=O)N[C@@H](CCCCN)C(=O)N4CCC[C@H]4C(=O)N4CCC[C@H]4C(=O)N[C@@H](Cc4ccc(O)cc4)C(=O)N[C@@H](CC(C)C)C(=O)N4CCC[C@H]4C(=O)N[C@@H](CCCNC(=N)N)C(=O)N4CCC[C@H]4C(=O)N[C@@H](CCCNC(=N)N)C(=O)N4CCC[C@H]4C(=O)N4CCC[C@H]4C(=O)N[C@@H](CCCNC(=N)N)C(=O)N[C@@H](CCCNC(=N)N)C(=O)N[C@H](C(=O)N[C@@H](Cc4ccc(O)cc4)C(=O)N[C@@H](CC(N)=O)C(=O)N[C@@H](CCCNC(=N)N)C(=O)O)[C@@H](C)CC)CS[C@H]3C)CS[C@H]2C)NC(=O)[C@H](CC(C)C)NC1=O [GNT6],"MIC value, E. coli CECT101","E. coli CECT101; CECT101, 18 h",>16 µM
same,Activity against E. coli CECT101 relative to nisin,E. coli CECT101,lower net activity than nisin
C=C1NC(=O)[C@H]([C@@H](C)CC)NC(=O)[C@H](NC(=O)/C(=C/C)NC(=O)[C@@H](N)[C@@H](C)CC)CSC[C@@H](C(=O)N[C@H]2C(=O)N3CCC[C@H]3C(=O)NCC(=O)N[C@H](C(=O)N[C@@H](CCCCN)C(=O)N[C@H]3C(=O)NCC(=O)N[C@@H](C)C(=O)N[C@@H](CC(C)C)C(=O)N[C@@H](CCSC)C(=O)NCC(=O)N[C@H](C(=O)N[C@@H](CC(N)=O)C(=O)N[C@@H](CCSC)C(=O)N[C@@H](CCCCN)C(=O)N[C@H]4C(=O)N[C@@H](C)C(=O)N[C@H]5C(=O)N[C@@H](CS[C@H]4C)C(=O)N[C@@H](Cc4c[nH]cn4)C(=O)N[C@H](C(=O)N[C@@H](CO)C(=O)NCC(=O)N4CCC[C@H]4C(=O)N[C@@H](CCCNC(=N)N)C(=O)N4CCC[C@H]4C(=O)N4CCC[C@H]4C(=O)N[C@@H](Cc4c[nH]cn4)C(=O)N4CCC[C@H]4C(=O)N[C@@H](CCCNC(=N)N)C(=O)N[C@@H](CC(C)C)C(=O)O)CS[C@H]5C)CS[C@H]3C)CS[C@H]2C)NC(=O)[C@H](CC(C)C)NC1=O [GNT16SG],Activity against E. coli CECT101 relative to nisin,E. coli CECT101,lower net activity than nisin
same,Activity against E. coli relative to GNT16,E. coli CECT101; from MIC values,more than four times lower activity
same,Activity against L. lactis relative to GNT16-3rings (times higher),L. lactis MG1363; from MIC values,2.5 times
C=C1NC(=O)[C@H]([C@@H](C)CC)NC(=O)[C@H](NC(=O)/C(=C/C)NC(=O)[C@@H](N)[C@@H](C)CC)CSC[C@@H](C(=O)N[C@H]2C(=O)N3CCC[C@H]3C(=O)NCC(=O)N[C@H](C(=O)N[C@@H](CCCCN)C(=O)N[C@H]3C(=O)NCC(=O)N[C@@H](C)C(=O)N[C@@H](CC(C)C)C(=O)N[C@@H](CCSC)C(=O)NCC(=O)N[C@H](C(=O)N[C@@H](CC(N)=O)C(=O)N[C@@H](CCSC)C(=O)N[C@@H](CCCCN)C(=O)N[C@H](C(=O)N[C@@H](Cc4ccc(O)cc4)C(=O)N[C@H](C(=O)N4CCC[C@H]4C(=O)N[C@@H](CCCNC(=N)N)C(=O)N4CCC[C@H]4C(=O)N[C@@H](CCCNC(=N)N)C(=O)N4CCC[C@H]4C(=O)N4CCC[C@H]4C(=O)N[C@@H](Cc4c[nH]cn4)C(=O)N4CCC[C@H]4C(=O)N[C@@H](CCCNC(=N)N)C(=O)O)[C@@H](C)CC)C(C)C)CS[C@H]3C)CS[C@H]2C)NC(=O)[C@H](CC(C)C)NC1=O [GNT1],"MIC value, E. coli CECT101","E. coli CECT101; CECT101, 18 h",>16 µM
same,Activity against E. coli CECT101 relative to nisin,E. coli CECT101,lower net activity than nisin
same,"MIC value, L. lactis MG1363",L. lactis MG1363,1 µM
C=C1NC(=O)[C@H]([C@@H](C)CC)NC(=O)[C@H](NC(=O)/C(=C/C)NC(=O)[C@@H](N)[C@@H](C)CC)CSC[C@@H](C(=O)N[C@H]2C(=O)N3CCC[C@H]3C(=O)NCC(=O)N[C@H](C(=O)N[C@@H](CCCCN)C(=O)N[C@H]3C(=O)NCC(=O)N[C@@H](C)C(=O)N[C@@H](CC(C)C)C(=O)N[C@@H](CCSC)C(=O)NCC(=O)N[C@H](C(=O)N[C@@H](CC(N)=O)C(=O)N[C@@H](CCSC)C(=O)N[C@@H](CCCCN)C(=O)N4CCC[C@H]4C(=O)N[C@@H](CCCNC(=N)N)C(=O)N4CCC[C@H]4C(=O)N[C@@H](CCCNC(=N)N)C(=O)N4CCC[C@H]4C(=O)N4CCC[C@H]4C(=O)N[C@@H](CCCNC(=N)N)C(=O)N[C@@H](CCCNC(=N)N)C(=O)N[C@H](C(=O)N[C@@H](Cc4ccc(O)cc4)C(=O)N[C@@H](CC(N)=O)C(=O)N[C@@H](CCCNC(=N)N)C(=O)O)[C@@H](C)CC)CS[C@H]3C)CS[C@H]2C)NC(=O)[C@H](CC(C)C)NC1=O [GNT7],"MIC value, E. coli CECT101","E. coli CECT101; CECT101, 18 h",>16 µM
same,Activity against E. coli CECT101 relative to nisin,E. coli CECT101,lower net activity than nisin
same,"MIC value, L. lactis MG1363",L. lactis MG1363,0.2 µM
same,Activity against L. lactis relative to GNT16,L. lactis MG1363; from MIC values,equal activity as GNT16
Ring ABC + NMKPRPRPPRRIYNR,cleaved bond,[2],N-R and Y-N and I-Y and R-I
"Ring ABC + NGKPRPYSPRPTSHPRPIRV (bicyclic or more) [GNT8, nisin Ring ABC + drosocin tail]","MIC value, E. coli CECT101","E. coli CECT101; Luria-Bertani broth, 96-well plate, 100 μl, 37°C, 18 h, OD600 every 30 min, peptide 0.25-32 μM, lowest concentration with no observed growth, repeated at least two times",>16 µM
same,Activity against E. coli CECT101 relative to nisin,E. coli CECT101,lower net activity than nisin
C=C1NC(=O)[C@H]([C@@H](C)CC)NC(=O)[C@H](NC(=O)/C(=C/C)NC(=O)[C@@H](N)[C@@H](C)CC)CSC[C@@H](C(=O)N[C@H]2C(=O)N3CCC[C@H]3C(=O)NCC(=O)N[C@H](C(=O)N[C@@H](CCCCN)C(=O)N[C@H]3C(=O)NCC(=O)N[C@@H](C)C(=O)N[C@@H](CC(C)C)C(=O)N[C@@H](CCSC)C(=O)NCC(=O)N[C@H](C(=O)N[C@@H](CC(N)=O)C(=O)N[C@@H](CCSC)C(=O)N[C@@H](CCCCN)C(=O)N4CCC[C@H]4C(=O)N[C@@H](CCCNC(=N)N)C(=O)N4CCC[C@H]4C(=O)N4CCC[C@H]4C(=O)N[C@@H](Cc4c[nH]cn4)C(=O)N4CCC[C@H]4C(=O)N[C@@H](CCCNC(=N)N)C(=O)N[C@@H](CC(C)C)C(=O)O)CS[C@H]3C)CS[C@H]2C)NC(=O)[C@H](CC(C)C)NC1=O [GNT16-3rings],"MIC value, E. coli CECT101","E. coli CECT101; CECT101, 18 h",>32 µM
same,Activity against E. coli CECT101 relative to nisin,E. coli CECT101,lower net activity than nisin
same,"MIC value, L. lactis MG1363",L. lactis MG1363,1 µM
Ring ABC + NGKPRPYSPRPTSHPRPIRV,cleaved bond,[2],P-I

# — PMC4745983 (Frontiers in Cell and Developmental Biology, 2016)
